Experimental data taken from PubChem BioAssay (NCI).
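Each compound was tested at five concentrations against cells in 96-well plates for 48 hours. Abbreviation: GI50, concentration required for 50% inhibition of growth. At the TGI there is no net growth.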

How the values were obtained:
Assay in all cases: DTP human tumour cell line panel, 48 h
RXF 393 renal = tested on: RXF 393 renal
NCI-H460 lung = tested on: NCI-H460 lung
SK-MEL-2 melanoma = tested on: SK-MEL-2 melanoma
SK-MEL-5 melanoma = tested on: SK-MEL-5 melanoma
EKVX NSCLC = tested on: EKVX NSCLC
MDA-N = tested on: MDA-N
OVCAR-3 ovarian = tested on: OVCAR-3 ovarian
A549 NSCLC = tested on: A549 NSCLC
SF-268 CNS = tested on: SF-268 CNS
HOP-92 NSCLC = tested on: HOP-92 NSCLC

Row | SMILES | TGI (RXF 393 renal) | TGI (NCI-H460 lung) | TGI (SK-MEL-2 melanoma) | TGI (SK-MEL-5 melanoma) | TGI (EKVX NSCLC) | TGI (MDA-N) | TGI (OVCAR-3 ovarian) | TGI (A549 NSCLC) | TGI (SF-268 CNS) | TGI (HOP-92 NSCLC) | GI50 (RXF 393 renal) | GI50 (NCI-H460 lung) | GI50 (SK-MEL-2 melanoma) | GI50 (SK-MEL-5 melanoma) | GI50 (EKVX NSCLC) | GI50 (HOP-92 NSCLC) | GI50 (OVCAR-3 ovarian) | GI50 (A549 NSCLC) | GI50 (SF-268 CNS)
1 | Cc1nc2ncn3c(c-2c1Cc1ccccc1)NC=C(O)N3 | 64 µM | > 100 µM | > 100 µM | > 100 µM | > 100 µM | > 100 µM | > 100 µM | > 100 µM | > 100 µM |  |  |  |  |  |  |  |  |  | 
2 | COC(=O)C[C@H](COCc1ccccc1)NC(=O)C[C@H](COCc1ccccc1)NC(=O)OC(C)(C)C | 63.3 µM |  | > 100 µM | > 100 µM | 45.4 µM |  | 86.9 µM | 62.4 µM | 40.5 µM | 65.5 µM |  |  |  |  |  |  |  |  | 
3 | CCCCCOC(=O)c1cc2cc(CCl)ccc2oc1=O | 14.6 µM | 34.9 µM | 2.08 µM | 13.4 µM | 18.4 µM | 20.9 µM | 19.5 µM | 41 µM | 41.9 µM | 7.35 µM |  |  |  |  |  |  |  |  | 
4 | Cc1cc(=O)[nH]c(/N=C(\N)Nc2ccc(Cl)cc2)n1 | > 100 µM | > 100 µM | > 100 µM | > 100 µM | > 100 µM | > 100 µM | > 100 µM | > 100 µM | > 100 µM | > 100 µM |  |  |  |  |  |  |  |  | 
5 | Nc1ccc(-c2nc3cc(F)ccc3s2)cc1CO | 34.9 µM | > 100 µM | > 62.9 µM | > 100 µM | > 100 µM | > 100 µM | > 100 µM | > 100 µM | 68.8 µM | 43.5 µM |  |  |  |  |  |  |  |  | 
6 | O=C1/C(=C\c2ccc(F)cc2)CCOc2c1ccc1ccccc21 | 49.7 µM | 97.9 µM | > 100 µM | 47.9 µM | > 100 µM |  | 27.9 µM | > 70.3 µM | 74.9 µM | 71.5 µM |  |  |  |  |  |  |  |  | 
7 | COc1ccc(C(=O)N(C(=O)N2CCN(c3ccccc3)CC2)S(=O)(=O)c2ccccc2)cc1 |  | > 100 µM | 35 µM | 28 µM | 50.4 µM | 65.4 µM | > 100 µM | 88.8 µM | > 100 µM | 72.3 µM |  |  |  |  |  |  |  |  | 
8 | COC(CN(C=O)[C@@H](c1ccc(Cl)cc1)c1cc2ccccc2o1)OC | 28.4 µM | 33.3 µM | 31.9 µM | 28.9 µM | 34.4 µM | 31.6 µM | 26.8 µM | 45.4 µM | 30.9 µM | 33.7 µM |  |  |  |  |  |  |  |  | 
9 | Nc1ccc(Oc2ccc(C34CC5CC(C3)CC(c3ccc(Oc6ccc(N)cc6)cc3)(C5)C4)cc2)cc1 | > 51.9 µM | 22.6 µM | 36.2 µM | 26.2 µM | > 66.5 µM | > 45.1 µM | > 32.3 µM | > 60.7 µM | > 51.7 µM | 25.8 µM |  |  |  |  |  |  |  |  | 
10 | O=[N+]([O-])c1ccc2c(c1)nc(Cc1ccc(Cl)cc1)n2C[C@@H]1CCCN2CCCCC12 (stereo not given in full) | 25.3 µM | 31.2 µM | 30.7 µM | 29.5 µM | > 41.2 µM | 25.9 µM | 30.8 µM | 42.1 µM | 6.27 µM | 25.4 µM |  |  |  |  |  |  |  |  | 
11 | NC(=S)N1N=C(c2ccccc2O)CC1c1ccccc1 (stereo not given) | 41.6 µM | 35.6 µM | 20.3 µM | 23.1 µM | 70.6 µM | 10.5 µM | 31.2 µM | 84.6 µM | 80.6 µM | 54.6 µM |  |  |  |  |  |  |  |  | 
12 | CCCN1C(=O)CSC1=Nc1ccc2cc3ccc(N=C4SCC(=O)N4CCC)cc3nc2c1 | > 100 µM | > 100 µM | > 100 µM | > 100 µM | > 100 µM |  | 67.6 µM | > 100 µM | > 100 µM | 0.334 µM | 75.8 µM | 66.3 µM | > 100 µM | 49 µM | > 100 µM | 39.1 nM | 22 µM | > 100 µM | 35.5 µM
13 | COc1cc([C@@H]2c3cc4c(cc3[C@@H](c3c(O)cc(O)c5c3O[C@H](c3ccc(O)c(O)c3)[C@H](OC(=O)c3cc(O)c(O)c(O)c3)C5)[C@H]3COC(=O)[C@H]23)OCO4)cc(OC)c1OC | > 100 µM | 96.9 µM | > 100 µM | > 100 µM | > 100 µM | > 100 µM | > 21.9 µM | > 100 µM | > 100 µM | > 100 µM |  |  |  |  |  |  |  |  | 
14 | Cc1cnoc1NS(=O)(=O)c1ccc(Nc2nnc(/C=C/c3c(O)ccc4ccccc34)c(=O)n2N)cc1 | 80.2 µM |  |  |  | 71.9 µM | 82.2 µM | 60.1 µM | > 100 µM | > 100 µM | > 100 µM |  |  |  |  |  |  |  |  | 
15 | COC1CC(CC2CCC(C)C(C(C)C(=O)O)O2)OC2(OC(C)(C3CCC(C)(C4OC(C5OC(O)(CO)C(C)CC5C)CC4C)O3)CC2C)C1C (stereo not given) | 1.15 µM | 22 µM | 5.22 µM | 1.83 µM | 49.2 µM | 4.99 µM | 14 µM | 21.8 µM | 36.5 µM | 16.4 µM |  |  |  |  |  |  |  |  | 
